Holding throughout (assay type): cell-based, mouse
In test [1] the test system is Toll-like receptor-4 mediated signaling pathways (JNK, p38, ERK, AKT). As to the kind of experiment: Multiplex ELISA of phosphorylated signaling proteins in PBMCs after LPS. How it is done:
To investigate how DHCA may attenuate IL-6 generation, we tested the effect of DHCA on Toll-like receptor-4 mediated signaling pathways. PBMCs were pretreated with DHCA and stimulated with LPS using the same protocol as during screening. Samples were taken at 0, 30 min, 60 min, 6 h and 16 h following LPS stimulation and cell lysates were subjected to a multiplex ELISA assay. […] Based on evidence that DNA methylation at a single CpG in the human IL-6 promoter region effectively alters IL-6 expression, we next tested whether DHCA can modulate IL-6 gene expression through methylation mechanisms. We treated PBMC cells with DHCA and measured the expression of enzymes essential for DNA methylation/demethylation. […] To investigate how methylation influences IL-6 gene expression, we employed the CpG-free luciferase reporter system. We cloned a ~280 bp CpG rich DNA segment from the mouse IL-6 promoter into a promoterless CpG-free reporter construct and transfected into N2a cells. We found the CpG-rich IL-6 promoter segment presented no inherent promoter activity as reflected by no differences in luciferase activity compared to the control construct (Fig. 2f). […] We then cloned CpG rich DNA segments from IL-6 introns 1, 3 or 4 into the CpG-free luciferase reporter construct with a minimal EF1 promoter and no enhancer activity. […] In contrast, the CpG-rich region of IL-6 intron 4 presented no observable enhancer activity (Fig. 2g). […] To test whether DHCA may influence the expression of other pro-inflammatory factors, we measured the level of secreted cytokines following LPS stimulation (Supplementary Fig. 3).
Luminex xMAP multiplexed immunoassays were used to evaluate the levels of phosphorylated proteins in PBMCs pre-treated with DHCA for 16 h followed by LPS stimulation. PBMCs were washed once with PBS and immediately lysed with MilliplexMAP Cell Signaling Universal Lysis Buffer and applied to the assay following manufacturer’s instruction (EMD Millipore). The phosphoprotein analytes used were: AKT (Ser473), JNK (Thr183/Tyr185), ERK (Thr185/Tyr187), p38 […] (Millipore, MA). Multiplex MAP mouse cytokine/chemokine Panel (EMD Millipore) was used to measure the levels of 32 cytokines/chemokines in mouse plasma or PBMC cultures.

The next test has as its system Rac1. Briefly: Rac1 expression in E18 MSN-enriched primary culture (screening, dose response). The source says:
BDPP contains a variety of polyphenols. Orally consumed polyphenols are typically bioavailable in various organs and tissues as metabolites (phase II polyphenol conjugates and phenolic acids) following xenobiotic metabolism and gastrointestinal microbiome fermentation. It is possible that some metabolites may counteract the positive effect of the others. Therefore, if supplied as BDPP, the overall benefits might be reduced due to potential ‘cancellation’ effects. By identifying individual metabolites that selectively target key pathological mechanisms (e.g., Rac1 and IL-6) we can greatly improve the efficacy. We and others recently identified 21 BDPP-derived phenolic metabolites that accumulate in blood and/or in the CNS (14 polyphenolic metabolites and 7 phenolic acids, Supplementary Table 1)[25], [28], [33], among which 14 are currently accessible, [34]. We initiated a high-throughput screen of these metabolites for their ability to modulate IL-6 and Rac1. […]
(§1) Total RNA from MSN-enriched cultures or brain NAc was isolated using the RNeasy Mini Kit (Qiagen, Valencia, CA, USA) and reverse transcribed. Gene expression was measured in four replicates by quantitative RT-PCR using Maxima SYBR Green master mix (Fermentas) in ABI Prism 7900HT. […]

The subject of test [2] is HDAC2 and other class I or class II HDACs. As to the kind of experiment: HDAC gene expression in MSN-enriched primary culture. Particulars: MSN-enriched primary cultures.
Excerpt: Stress-induced reduction of Rac1 expression is associated with a repressed chromatin state surrounding the promoter region of Rac1 in the NAc[11]. Since Mal-gluc can cross the BBB, we hypothesized that Mal-gluc may promote Rac1 expression, in part, by modulating chromatin acetylation. We first assessed the effect of Mal-gluc on HDACs that play key roles in chromatin deacetylation. […] Using site directed quantitative chromatin immunoprecipitation (qCHIP), we examined the permissive histone H3 acetylation (AcH3) in Mal-gluc treated MSN-enriched primary cultures.
Striatal tissue from E18 was mechanically triturated and centrifuged. Neurons were seeded onto a poly-D-lysine-coated 12-well plate at 5 × 10^5 cells/well and cultured in Neurobasal medium, supplemented with 2% B27, 0.5 mM L-glutamine, and 1% penicillin-streptomycin (Gibco-BRL, Invitrogen). Following 4 days in vitro (DIV), 5 µM of Ara-c was used to inhibit the growth of glial cells. Following 10-day DIV culturing, neurons were treated with select brain-bioavailable polyphenol metabolites for 16 h, washed once with cold PBS and RNA was then isolated. […]
as §1

[3] abbreviates: 30 min and 60 min following LPS, no further changes at 6 h and 16 h.
Where [4] appears, read: PBMCs, DHCA pretreatment, 0, 30 min, 60 min, 6 h, 16 h after LPS.

Molecules are shown by their SMILES.

For the compound `O=C(O)CCc1ccc(O)c(O)c1` [DHCA, 3(3,4-dihydroxy-phenyl) propionic acid], in test [1] (setting [3]), the “decrease in AKT activation” value was ~ 10% and the “decrease in ERK activation” value is ~ 10%. For the same compound, in test [1] (setting [4]), the “activation (phosphorylation) of JNK” value was “no effect” and the “activation (phosphorylation) of p38” value is “no effect”.

Regarding `COc1cc(-c2[o+]c3cc(O)cc(O)c3cc2O[C@@H]2O[C@H](CO)[C@@H](O)[C@H](O)[C@H]2O)cc(OC)c1O` [Mal-gluc], in the test on Rac1 (9 brain bioavailable metabolites screened), the “primary screening, Rac1 expression” value is reported as “significantly increased Rac1 expression”. In the test with Rac1 (E18 MSN-enriched primary culture, 16 h, read-out: calculated EC50, increase of Rac1 expression), the EC50 was 3.52 nM. In test [2], the “expression of HDAC2” value was “significantly reduced the expression of HDAC2” and the “expression of other class I or class II HDACs” value is on record as “no observable effect”.

The record behind these values is paper PMC5797143, “Epigenetic modulation of inflammation and synaptic plasticity promotes resilience against stress in mice” (Nature Communications, 2018).
